# According to paper PMC6234229, “The role of loops B and C in determining the potentiation of GABAA receptors by midazolam” (Pharmacology Research & Perspectives, 2018):
# Experiments:
# Test in all cases: GABA concentration-response assay, whole-cell patch clamp, HEK293T
# Format in all cases: cell-based
# Settings in all cases: GABA Hill fit
# [1] = molecular target: T1, α2β2γ2 GABAA receptor (Homo sapiens, UniProt P18507+P47869+P47870)
# T1 construct: expressed in transfected cells; host or cells: HEK293T
# Description: (§1) Human (Homo sapiens) GABAA subunits (α1‐6, β2, γ2s) were subcloned into pcDNA3.1+ vectors with a cytomegalovirus (CMV) promoter. The hβ2 and hα3 sequences were humanized rat (Rattus norvegicus) cDNA with amino acid substitutions made to match the human protein sequence. The α1‐3, α5, β2, and γ2s subunits were a generous gift from Neil L. Harrison (Columbia University Medical Center, NY). The α4 subunit was obtained from GenScript (Piscataway, NJ), and the α6 subunit was a generous gift from Robert L. McDonald (Vanderbilt University, TN). All point mutations (listed in Figure 1C) were introduced using the QuikChange Lightening site‐directed mutagenesis kit (Agilent Technologies, Santa Clara, CA) according to the manufacturer's instructions and were confirmed by sequencing (Eurofins MWG Operon, Louisville, KY).
# (§2) Human embryonic kidney cells containing the SV40 T‐antigen (HEK293T) were acquired from American Type Culture Collection (ATCC®, Manassas, VA), catalogue number, CRL3216. HEK293T cells were maintained at 37°C and 5% CO2 in Eagle Minimum Essential Medium (MEM) supplemented with 5% fetal bovine serum (Atlanta Biologicals Inc., Flowery Branch, GA), 40 μM L‐glutamine, 100 U/mL penicillin and 0.1 mM streptomycin. Cells were passaged regularly when they reached 70% confluency using trypsin. Cells were not passaged more than 22 times. New cells were revived from frozen stocks at passage 2‐4. Cells used for in vitro electrophysiology experiments were grown on poly‐D‐lysine‐coated glass coverslips (No.2, VWR, Radnor, PA) and transfected with X‐tremeGENE (Roche Diagnostics, Indianapolis, IN) with the desired receptor subunit cDNAs at a 1:1:1 ratio to express αxβ2γ2s receptors (2 μg total cDNA) and with 0.5 μg green fluorescent protein (GFP) as an expression marker. The γ2s incorporation into receptors was tested with zinc inhibition assays regularly.24 Patch clamp experiments were performed on cells at 24‐72 hours post‐transfection. All experiments were performed at 22°C. Experiments consisted of at least five cells recorded per day from at least two transfections across 3‐4 days to control for cell health and transfection efficiency. At least three cells expressing wild‐type receptors were recorded on days that mutant receptors were tested to provide a time‐matched expression control. All reagents were purchased from Sigma‐Aldrich (St. Louis, MO) unless otherwise stated.
# (§3) Extracellular solution contained 161 mM NaCl, 3 mM KCl, 1 mM MgCl2, 1.5 mM CaCl2, 10 mM HEPES, and 6 mM D‐glucose, adjusted to pH 7.4 with NaOH (320‐330 mOsm). […] The perfusion system was controlled by protocols written in pClamp 9 (Molecular Devices, LLC., Sunnyvale, CA). Whole‐cell currents were recorded at ‐60 mV, filtered at 100 Hz and sampled at 200 Hz with a MultiClamp 700B amplifier (Molecular Devices, LLC) and DigiData 1322A (Molecular Devices, LLC) digitizer. […] Cells were recorded with the midazolam protocol no more than two times to avoid desensitization and incomplete washout or irreversible modulation.
# (§4) Recordings were analyzed using MATLAB (Math Works, Inc., Natick, MA). […] The maximum peak current, EC50 and Hill coefficient were estimated for assays from each cell. When Hill parameters are estimated from whole‐cell recordings, the changes in the parameters across receptor conditions can be ascribed to the following changes in receptor physiology. Changes in maximum current can be due to changes in the single‐channel conductance or the rate of desensitization. Changes in cell surface receptor expression can cause minor changes in maximum current, but are unlikely to occur in the time course of our experimental protocol. […] More often minor changes in the Hill coefficient are attributed to the altered homogeneity in the receptor population expressed by the HEK293T cell. For example, a shallower Hill coefficient could be caused by a shift in the population of receptors from mostly αβγ receptors to a combination of both αβ and αβγ receptors.
# [2] = molecular target: T2, α2(S205I)β2γ2 GABAA receptor (Homo sapiens, UniProt P18507+P47869+P47870, S233I)
# T2 construct: expressed in transfected cells; host or cells: HEK293T
# Description: as §1, §2, §3, §4
# [3] = molecular target: T3, α4(I204S)β2γ2 GABAA receptor (Homo sapiens, UniProt P18507+P47870+P48169, I239S)
# T3 construct: expressed in transfected cells; host or cells: HEK293T
# Description: as §1, §2, §3, §4
# [4] = molecular target: T4, α1(T163P)β2γ2 GABAA receptor (Homo sapiens, UniProt P14867+P18507+P47870, T190P)
# T4 construct: expressed in transfected cells; host or cells: HEK293T
# Description: as §1, §2, §3, §4
# [5] = molecular target: T5, α4(R100H)β2γ2 GABAA receptor (Homo sapiens, UniProt P18507+P47870+P48169, R135H)
# T5 construct: expressed in transfected cells; host or cells: HEK293T
# Description: as §1, §2, §3, §4
# [6] = molecular target: T6, α3(T187P)β2γ2 GABAA receptor (Homo sapiens, UniProt P18507+P34903+P47870, T215P)
# T6 construct: expressed in transfected cells; host or cells: HEK293T
# Description: as §1, §2, §3, §4
# [7] = molecular target: T7, α3(S230I)β2γ2 GABAA receptor (Homo sapiens, UniProt P18507+P34903+P47870, S258I)
# T7 construct: expressed in transfected cells; host or cells: HEK293T
# Description: as §1, §2, §3, §4
# [8] = molecular target: T8, α2(H101R)β2γ2 GABAA receptor (Homo sapiens, UniProt P18507+P47869+P47870, H129R)
# T8 construct: expressed in transfected cells; host or cells: HEK293T
# Description: as §1, §2, §3, §4
# [9] = molecular target: T9, α3(H126R)β2γ2 GABAA receptor (Homo sapiens, UniProt P18507+P34903+P47870, H154R)
# T9 construct: expressed in transfected cells; host or cells: HEK293T
# Description: as §1, §2, §3, §4
# [10] = molecular target: T10, α1(H102R)β2γ2 GABAA receptor (Homo sapiens, UniProt P14867+P18507+P47870, H129R)
# T10 construct: expressed in transfected cells; host or cells: HEK293T
# Description: as §1, §2, §3, §4
# [11] = molecular target: T11, α1(S206I)β2γ2 GABAA receptor (Homo sapiens, UniProt P14867+P18507+P47870, S233I)
# T11 construct: expressed in transfected cells; host or cells: HEK293T
# Description: as §1, §2, §3, §4
# [12] = molecular target: T12, α4β2γ2 GABAA receptor (Homo sapiens, UniProt P18507+P47870+P48169)
# T12 construct: expressed in transfected cells; host or cells: HEK293T
# Description: as §1, §2, §3, §4
# [13] = molecular target: T13, α1β2γ2 GABAA receptor (Homo sapiens, UniProt P14867+P18507+P47870)
# T13 construct: expressed in transfected cells; host or cells: HEK293T
# Description: as §1, §2, §3, §4
# T10 sequence (P14867 28-456 H129R): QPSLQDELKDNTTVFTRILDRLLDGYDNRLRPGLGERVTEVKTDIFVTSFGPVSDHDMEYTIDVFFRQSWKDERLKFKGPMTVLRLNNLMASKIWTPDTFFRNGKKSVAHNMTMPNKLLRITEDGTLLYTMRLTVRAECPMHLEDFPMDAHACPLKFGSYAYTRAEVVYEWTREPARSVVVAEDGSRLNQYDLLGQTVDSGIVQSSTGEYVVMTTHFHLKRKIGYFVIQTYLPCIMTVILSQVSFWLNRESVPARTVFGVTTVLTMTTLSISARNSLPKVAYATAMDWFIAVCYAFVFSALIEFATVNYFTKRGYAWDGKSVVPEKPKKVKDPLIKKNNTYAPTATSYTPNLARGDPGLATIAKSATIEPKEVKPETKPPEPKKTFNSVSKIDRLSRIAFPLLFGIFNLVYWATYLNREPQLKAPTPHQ
# T10 sequence (P47870 25-512 limits assumed): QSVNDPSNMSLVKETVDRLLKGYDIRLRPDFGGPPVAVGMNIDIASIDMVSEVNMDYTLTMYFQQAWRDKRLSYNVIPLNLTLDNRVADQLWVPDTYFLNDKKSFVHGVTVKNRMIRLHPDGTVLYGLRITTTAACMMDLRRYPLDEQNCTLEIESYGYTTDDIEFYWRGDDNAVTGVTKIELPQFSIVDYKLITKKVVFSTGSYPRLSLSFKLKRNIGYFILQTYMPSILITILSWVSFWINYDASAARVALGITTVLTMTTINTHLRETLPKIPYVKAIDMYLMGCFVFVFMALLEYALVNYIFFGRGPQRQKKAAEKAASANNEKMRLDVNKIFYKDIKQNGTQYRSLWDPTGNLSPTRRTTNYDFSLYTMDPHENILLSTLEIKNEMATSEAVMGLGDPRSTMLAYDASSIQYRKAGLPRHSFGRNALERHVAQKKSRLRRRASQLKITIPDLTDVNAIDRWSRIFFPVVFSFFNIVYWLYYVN
# T10 sequence (P18507 40-467 isoform P18507-1 limits assumed, stated change not applied): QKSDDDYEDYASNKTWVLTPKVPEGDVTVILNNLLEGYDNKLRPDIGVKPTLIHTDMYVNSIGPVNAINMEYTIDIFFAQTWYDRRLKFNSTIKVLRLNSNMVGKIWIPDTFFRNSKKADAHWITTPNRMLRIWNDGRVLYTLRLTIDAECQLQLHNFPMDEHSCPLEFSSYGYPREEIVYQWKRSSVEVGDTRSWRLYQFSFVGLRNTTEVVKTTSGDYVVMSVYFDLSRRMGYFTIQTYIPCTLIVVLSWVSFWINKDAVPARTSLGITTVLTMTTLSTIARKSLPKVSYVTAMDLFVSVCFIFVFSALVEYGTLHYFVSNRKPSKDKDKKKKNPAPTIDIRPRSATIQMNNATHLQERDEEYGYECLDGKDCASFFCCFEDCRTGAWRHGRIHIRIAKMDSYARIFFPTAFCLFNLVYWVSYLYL
# T5 sequence (P48169 36-554 R135H): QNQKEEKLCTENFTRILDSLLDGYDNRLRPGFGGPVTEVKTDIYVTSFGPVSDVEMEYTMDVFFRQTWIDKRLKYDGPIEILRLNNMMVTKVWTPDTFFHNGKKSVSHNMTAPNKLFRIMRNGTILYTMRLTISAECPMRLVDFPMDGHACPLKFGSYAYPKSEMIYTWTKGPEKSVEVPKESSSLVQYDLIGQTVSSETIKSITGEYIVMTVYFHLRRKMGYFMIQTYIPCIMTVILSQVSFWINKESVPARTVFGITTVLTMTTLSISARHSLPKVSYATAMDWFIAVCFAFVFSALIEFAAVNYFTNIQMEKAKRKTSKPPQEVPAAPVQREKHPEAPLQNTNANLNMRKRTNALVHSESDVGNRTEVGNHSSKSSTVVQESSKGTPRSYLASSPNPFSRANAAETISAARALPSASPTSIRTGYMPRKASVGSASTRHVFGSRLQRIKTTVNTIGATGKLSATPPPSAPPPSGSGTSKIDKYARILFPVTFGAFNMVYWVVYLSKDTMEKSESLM
# T5 sequence (P47870 26-474 isoform P47870-1 limits assumed, stated change not applied): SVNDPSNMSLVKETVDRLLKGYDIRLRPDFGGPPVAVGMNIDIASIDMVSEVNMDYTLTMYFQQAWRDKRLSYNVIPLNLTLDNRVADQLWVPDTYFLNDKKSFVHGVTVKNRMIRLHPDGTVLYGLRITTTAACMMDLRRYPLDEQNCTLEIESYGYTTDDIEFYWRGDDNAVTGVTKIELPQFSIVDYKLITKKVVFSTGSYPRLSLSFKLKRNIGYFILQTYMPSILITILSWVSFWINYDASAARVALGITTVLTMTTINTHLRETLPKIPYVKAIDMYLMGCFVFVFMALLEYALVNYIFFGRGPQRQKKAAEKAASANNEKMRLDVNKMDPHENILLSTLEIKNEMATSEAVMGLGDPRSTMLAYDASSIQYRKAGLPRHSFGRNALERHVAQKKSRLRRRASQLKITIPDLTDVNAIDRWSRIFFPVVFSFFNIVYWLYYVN
# T5 sequence (P18507 40-467 isoform P18507-1 limits assumed, stated change not applied): as the sequence (P18507 40-467 isoform P18507-1 limits assumed, stated change not applied) above
# T3 sequence (P48169 36-554 I239S): as the sequence (P48169 36-554 R135H) above, with H100R, I204S counted along it
# T3 sequence (P47870 26-474 isoform P47870-1 limits assumed, stated change not applied): as the sequence (P47870 26-474 isoform P47870-1 limits assumed, stated change not applied) above
# T3 sequence (P18507 40-467 isoform P18507-1 limits assumed, stated change not applied): as the sequence (P18507 40-467 isoform P18507-1 limits assumed, stated change not applied) above
smiles,measurement,setting,value
"NCCCC(=O)O [GABA, γ‐aminobutyric acid]",Hill coefficient,[1],1.581 ± 0.074
same,Max Current (pA),[1],-3326 ± 356.7 pA
same,Hill coefficient,[2],1.452 ± 0.151
same,Max Current (pA),[2],-7835 pA
same,Hill coefficient,[3],1.180 ± 0.072
same,Max Current (pA),[3],-3424 ± 394.5 pA
same,Hill coefficient,[4],1.230 ± 0.049
same,Max Current (pA),[4],-2449 ± 376.1 pA
same,Hill coefficient,[5],1.215 ± 0.079
same,Max Current (pA),[5],-3049 ± 378.6 pA
same,Max Current (pA),[6],-1993 ± 189.7 pA
same,Hill coefficient,[7],1.796
same,Max Current (pA),[7],-1724 ± 286.1 pA
same,Hill coefficient,[8],1.443 ± 0.092
same,Max Current (pA),[8],-3186 ± 390.8 pA
same,Hill coefficient,[9],1.519 ± 0.88
same,Max Current (pA),[9],-3597 ± 343.6 pA
same,Hill coefficient,[10],1.255 ± 0.097
same,Max Current (pA),[10],-3175 ± 444.3 pA
same,Hill coefficient,[11],1.444 ± 0.104
same,Max Current (pA),[11],-5007 ± 470.7 pA
same,Hill coefficient,[12],1.113 ± 0.063
same,Max Current (pA),[12],-3039 ± 347.3 pA
same,Hill coefficient,[13],1.400 ± 0.102
same,Max Current (pA),[13],-4218 ± 601.6 pA
